# Measurements reported in patent US4963569A, “L-654,040, antibacterial agent” (Merck & Co., Inc., priority 1989, dated 1990).
# “Also recorded” adds a separate entry of the source.
# Assays:
# Solubility in water = assay type: physicochemical; conditions: solutions in water for dosing
# [1] = test system: Pasteurella multocida (4678); assay: In vivo efficacy in infected mice
# [2] = test system: Bordetella bronchiseptica (3771); assay: In vivo efficacy in infected mice
# [3] = test system: Pasteurella multocida (4678); assay: Combined therapy with erythromycin in infected mice; conditions: L-654,040 combined with erythromycin, intraperitoneal
# Staph. aureus 2865 = assay: Agar dilution MIC, antagonist-free medium (Table II); conditions: Staphylococcus aureus 2865, agar dilution
# E. coli DC2 4353 = assay: as above; conditions: E. coli permeability mutant
# [4] = 160 mg/kg×2 intraperitoneal, 0 and 6 hours after infection
smiles,measurement,setting,value
"C[C@H](CNC(=O)[C@H]1N=C(c2cccc(O)c2O)O[C@@H]1C)C(=O)N[C@@H]1CCCN(O)C1=O [L-654,040, 2-(2,3-dihydroxyphenyl)-4,5-dihydro-N-[3-[(1-hydroxy-2-oxo-3(R)-piperidinyl)amino]-2(R)-methyl-3-oxopropyl]-5R-methyl-4S-oxazolecarboxamide]",solubility (in words),Solubility in water,limited solubility
same,statistical significance of prolongation of survival,[1]; 160 mg/kg×2 intraperitoneal,statistically significant (0.025<p<0.05)
same,survival time,[1]; [4],prolongation of survival time was observed
same,survival time (summary),[1]; intraperitoneal,did prolong the survival time; also recorded: increases survival time
same,statistical significance of prolonged survival (summary),"[1]; intraperitoneal, two Pasteurella tests",statistically significant at one level in two Pasteurella tests
same,survival time,[2]; [4],prolongation of survival time was observed
same,survival time (summary),[2]; intraperitoneal,did prolong the survival time
same,effectiveness of combined therapy vs erythromycin alone,[3],slightly more effective than erythromycin alone
same,synergism with erythromycin,[3],not to a degree considered to be synergistic
same,sensitivity of strain,Staph. aureus 2865,sensitive
same,sensitivity of strain,E. coli DC2 4353; agar dilution,sensitive
same,"relative activity, acetyl derivative vs parent compound",E. coli DC2 4353; from MIC,equal activity
